Experimental data published in patent publication US8940742B2, “Heterocyclic compounds and uses thereof” (Infinity Pharmaceuticals, Inc., priority 2012, dated 2015).
pIC50: −log10 of the molar value.

Molecular target: RAJI p110 δ (Homo sapiens, UniProt O00329)
Experiment: RAJI p110 δ cellular assay (phospho-AKT);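 note: potency based on lowered phosphorylated AKT in RAJI cells, as a readout of PI3K-δ dependent B-cell receptor signaling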
Conditions: not given

Sequence of RAJI p110 δ (O00329 whole entry): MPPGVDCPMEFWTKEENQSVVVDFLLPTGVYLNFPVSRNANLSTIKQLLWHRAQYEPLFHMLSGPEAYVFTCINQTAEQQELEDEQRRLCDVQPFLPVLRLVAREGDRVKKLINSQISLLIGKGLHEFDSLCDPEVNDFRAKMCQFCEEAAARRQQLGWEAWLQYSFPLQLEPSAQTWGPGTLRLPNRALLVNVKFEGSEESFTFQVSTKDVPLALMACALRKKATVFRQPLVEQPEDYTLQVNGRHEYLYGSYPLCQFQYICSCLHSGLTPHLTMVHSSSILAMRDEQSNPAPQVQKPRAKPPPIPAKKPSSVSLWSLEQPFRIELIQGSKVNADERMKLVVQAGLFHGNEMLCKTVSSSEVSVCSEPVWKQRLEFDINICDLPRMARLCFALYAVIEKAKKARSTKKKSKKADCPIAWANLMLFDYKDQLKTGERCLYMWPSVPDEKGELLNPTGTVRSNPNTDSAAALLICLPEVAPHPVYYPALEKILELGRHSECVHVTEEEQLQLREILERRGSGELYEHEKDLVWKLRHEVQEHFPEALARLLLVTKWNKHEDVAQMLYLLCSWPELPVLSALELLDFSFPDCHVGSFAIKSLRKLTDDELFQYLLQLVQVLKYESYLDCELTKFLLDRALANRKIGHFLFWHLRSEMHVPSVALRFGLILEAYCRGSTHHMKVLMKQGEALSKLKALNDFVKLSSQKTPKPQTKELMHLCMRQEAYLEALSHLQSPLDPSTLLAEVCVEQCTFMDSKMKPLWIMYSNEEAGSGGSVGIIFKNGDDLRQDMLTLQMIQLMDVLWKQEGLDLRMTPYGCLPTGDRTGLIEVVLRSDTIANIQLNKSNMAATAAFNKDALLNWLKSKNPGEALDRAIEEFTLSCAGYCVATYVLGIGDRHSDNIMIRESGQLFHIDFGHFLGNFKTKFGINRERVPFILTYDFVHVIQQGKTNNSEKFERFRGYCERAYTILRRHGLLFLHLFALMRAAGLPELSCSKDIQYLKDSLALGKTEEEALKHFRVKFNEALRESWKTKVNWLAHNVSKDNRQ
Sequence of RAJI p110 δ (P27986 whole entry partner): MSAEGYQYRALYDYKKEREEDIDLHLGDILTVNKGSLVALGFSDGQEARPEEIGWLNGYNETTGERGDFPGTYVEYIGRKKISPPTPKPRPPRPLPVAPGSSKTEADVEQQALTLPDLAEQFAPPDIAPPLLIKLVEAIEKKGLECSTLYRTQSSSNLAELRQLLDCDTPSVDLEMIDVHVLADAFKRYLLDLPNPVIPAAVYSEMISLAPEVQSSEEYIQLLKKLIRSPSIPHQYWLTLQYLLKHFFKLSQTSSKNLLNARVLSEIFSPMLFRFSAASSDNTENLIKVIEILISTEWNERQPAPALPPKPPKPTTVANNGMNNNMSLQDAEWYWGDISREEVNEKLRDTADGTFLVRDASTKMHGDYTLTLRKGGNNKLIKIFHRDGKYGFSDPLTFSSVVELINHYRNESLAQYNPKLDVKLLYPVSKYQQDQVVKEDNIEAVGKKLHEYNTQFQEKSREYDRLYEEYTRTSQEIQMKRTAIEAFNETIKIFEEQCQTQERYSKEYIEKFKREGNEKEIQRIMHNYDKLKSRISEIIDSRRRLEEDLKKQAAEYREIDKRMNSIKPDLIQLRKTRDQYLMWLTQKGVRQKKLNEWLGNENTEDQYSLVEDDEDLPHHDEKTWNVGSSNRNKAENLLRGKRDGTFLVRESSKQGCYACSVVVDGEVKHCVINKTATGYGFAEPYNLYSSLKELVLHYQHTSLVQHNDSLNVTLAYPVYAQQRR

Compound	pIC50
C[C@H](NC(=O)c1nc(-c2cccc(S(=O)(=O)NC3CC3)c2)cnc1N)c1cc2cccc(Cl)c2c(=O)n1-c1ccccc1 [Compound 96]	> 7.00
C[C@H](NC(=O)c1c(N)nn2cccnc12)c1cc2cccc(Cl)c2c(=O)n1-c1cccc(F)c1 [Compound 78]	> 7.00
C[C@H](NC(=O)c1nc(-c2ccccc2)cnc1N)c1cc2cccc(Cl)c2c(=O)n1-c1ccccc1 [Compound 42]	6.00 to 7.00
C[C@H](NC(=O)c1c(N)nn2cccnc12)c1cc2cccc(C#CCCNC(=O)[C@H]3CCC(=O)O3)c2c(=O)n1-c1ccccc1 [Compound 161]	> 7.00

Now from value to molecule:

pIC50	Compound
> 7.00	C#Cc1cccc2cc([C@H](C)NC(=O)c3c(N)nn4cccnc34)n(-c3ccccc3)c(=O)c12 [Compound 276]
> 7.00	C[C@H](NC(=O)c1c(N)nn2cccnc12)c1cc2cccc(-c3cnn(C)c3)c2c(=O)n1-c1ccccc1 [Compound 222]
> 7.00	C[C@H](NC(=O)c1c(N)nn2cccnc12)c1cc2cccc(Cl)c2c(=O)n1CCN(C)S(C)(=O)=O [Compound 273]
6.00 to 7.00	C[C@H](NC(=O)c1c(N)nn2cccnc12)c1cc2ccsc2c(=O)n1-c1ccccc1 [Compound 198]

Molecular target: T1, PI3K β (Homo sapiens, UniProt P42338)
T1 construct: purchased Millipore
T1 sequence (P42338 whole entry): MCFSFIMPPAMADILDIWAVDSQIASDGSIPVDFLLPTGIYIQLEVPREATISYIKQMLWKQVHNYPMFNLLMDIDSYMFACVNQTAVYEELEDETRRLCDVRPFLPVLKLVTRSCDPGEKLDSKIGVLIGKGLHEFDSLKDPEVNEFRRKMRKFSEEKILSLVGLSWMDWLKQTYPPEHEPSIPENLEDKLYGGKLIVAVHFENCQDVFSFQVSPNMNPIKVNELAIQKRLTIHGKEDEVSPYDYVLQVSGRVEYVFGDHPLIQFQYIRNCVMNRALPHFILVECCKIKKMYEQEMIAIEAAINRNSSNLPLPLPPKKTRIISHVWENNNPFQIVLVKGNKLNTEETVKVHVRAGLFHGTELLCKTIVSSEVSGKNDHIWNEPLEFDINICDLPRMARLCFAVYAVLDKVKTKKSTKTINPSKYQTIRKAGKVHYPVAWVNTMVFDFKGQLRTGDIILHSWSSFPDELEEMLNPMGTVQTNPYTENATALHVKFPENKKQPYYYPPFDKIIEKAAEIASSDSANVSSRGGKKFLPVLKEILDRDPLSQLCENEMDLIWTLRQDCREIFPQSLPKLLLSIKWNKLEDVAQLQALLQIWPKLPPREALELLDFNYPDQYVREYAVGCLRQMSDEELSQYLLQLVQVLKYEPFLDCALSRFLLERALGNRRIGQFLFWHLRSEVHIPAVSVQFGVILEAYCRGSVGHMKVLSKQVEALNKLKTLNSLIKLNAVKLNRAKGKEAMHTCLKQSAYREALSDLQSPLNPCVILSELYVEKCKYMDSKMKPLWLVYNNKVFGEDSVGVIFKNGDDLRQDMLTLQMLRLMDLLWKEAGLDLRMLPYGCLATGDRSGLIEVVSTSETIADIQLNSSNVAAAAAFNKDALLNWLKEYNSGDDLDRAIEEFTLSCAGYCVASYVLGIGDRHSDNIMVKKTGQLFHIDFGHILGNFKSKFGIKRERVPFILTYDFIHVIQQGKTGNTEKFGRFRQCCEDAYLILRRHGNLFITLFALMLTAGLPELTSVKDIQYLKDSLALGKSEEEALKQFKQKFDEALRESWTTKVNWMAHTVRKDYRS
T1 sequence (P27986 whole entry partner): as the sequence (P27986 whole entry partner) above
Experiment: PI3-Kinase Promega ADP-Glo Max assay
Assay type: biochemical
Conditions: 40 nM kinase, 3 mM ATP, 500 uM diC8-PtdInsP
Description: (§1) Promega ADP-Glo Max assay kit (Cat. No. V7002) was utilized to determine IC50 values for α, β, δ and γ isoforms of human Class I PI3 kinases (Millipore). Samples of kinase (20 nM α or δ, 40 nM β or γ isoform) were incubated with compound for 15 minutes at room temperature in reaction buffer (15 mM HEPES pH 7.4, 20 mM NaCl, 1 mM EGTA, 0.02% Tween 20, 10 mM MgCl2, 0.2 mg/mL bovine-γ-globulins) followed by addition of ATP/diC8-PtdInsP mixture to give final concentrations of 3 mM ATP and 500 uM diC8-PtdInsP. Reactions were incubated at room temperature for 2 hours followed by addition of 25 uL of stop solution. After a 40-minute incubation at room temperature, 50 uL of Promega detection mix was added followed by incubation for 1 hour at room temperature. Plates were then read on Envision plate reader in luminescence mode. Data was converted to % inhibition using the following equation below:
(§2) [formula] where S is the sample luminescence, Pos is a positive control without added PI3K, Neg is the negative control without added compound. Data was then plotted as % inhibition vs compound concentration. Data fit to 4 parameter logistic equation to determine IC50 values: […]
(§3) Certain compounds provided herein were tested in PI3-Kinase Promega Assay using procedures as described above to determine IC50 values for α, β, δ and/or γ isoforms.

Compound	pIC50
C[C@H](NC(=O)c1nc(-c2cccc(S(=O)(=O)NC3CC3)c2)cnc1N)c1cc2cccc(Cl)c2c(=O)n1-c1ccccc1 [Compound 96]	5.00 to 6.00
C[C@H](NC(=O)c1c(N)nn2cccnc12)c1cc2cccc(Cl)c2c(=O)n1-c1cccc(F)c1 [Compound 78]	6.00 to 7.00
C[C@H](NC(=O)c1nc(-c2ccccc2)cnc1N)c1cc2cccc(Cl)c2c(=O)n1-c1ccccc1 [Compound 42]	< 5.00
C[C@H](NC(=O)c1c(N)nn2cccnc12)c1cc2cccc(C#CCCNC(=O)[C@H]3CCC(=O)O3)c2c(=O)n1-c1ccccc1 [Compound 161]	< 5.00

More lines, now with the values ahead:

pIC50	Compound
6.00 to 7.00	C#Cc1cccc2cc([C@H](C)NC(=O)c3c(N)nn4cccnc34)n(-c3ccccc3)c(=O)c12 [Compound 276]
< 5.00	C[C@H](NC(=O)c1c(N)nn2cccnc12)c1cc2cccc(-c3cnn(C)c3)c2c(=O)n1-c1ccccc1 [Compound 222]
6.00 to 7.00	C[C@H](NC(=O)c1c(N)nn2cccnc12)c1cc2cccc(Cl)c2c(=O)n1CCN(C)S(C)(=O)=O [Compound 273]
5.00 to 6.00	C[C@H](NC(=O)c1c(N)nn2cccnc12)c1cc2ccsc2c(=O)n1-c1ccccc1 [Compound 198]

Molecular target: T2, PI3K α (Homo sapiens, UniProt P42336)
T2 construct: purchased Millipore
T2 sequence (P42336 whole entry): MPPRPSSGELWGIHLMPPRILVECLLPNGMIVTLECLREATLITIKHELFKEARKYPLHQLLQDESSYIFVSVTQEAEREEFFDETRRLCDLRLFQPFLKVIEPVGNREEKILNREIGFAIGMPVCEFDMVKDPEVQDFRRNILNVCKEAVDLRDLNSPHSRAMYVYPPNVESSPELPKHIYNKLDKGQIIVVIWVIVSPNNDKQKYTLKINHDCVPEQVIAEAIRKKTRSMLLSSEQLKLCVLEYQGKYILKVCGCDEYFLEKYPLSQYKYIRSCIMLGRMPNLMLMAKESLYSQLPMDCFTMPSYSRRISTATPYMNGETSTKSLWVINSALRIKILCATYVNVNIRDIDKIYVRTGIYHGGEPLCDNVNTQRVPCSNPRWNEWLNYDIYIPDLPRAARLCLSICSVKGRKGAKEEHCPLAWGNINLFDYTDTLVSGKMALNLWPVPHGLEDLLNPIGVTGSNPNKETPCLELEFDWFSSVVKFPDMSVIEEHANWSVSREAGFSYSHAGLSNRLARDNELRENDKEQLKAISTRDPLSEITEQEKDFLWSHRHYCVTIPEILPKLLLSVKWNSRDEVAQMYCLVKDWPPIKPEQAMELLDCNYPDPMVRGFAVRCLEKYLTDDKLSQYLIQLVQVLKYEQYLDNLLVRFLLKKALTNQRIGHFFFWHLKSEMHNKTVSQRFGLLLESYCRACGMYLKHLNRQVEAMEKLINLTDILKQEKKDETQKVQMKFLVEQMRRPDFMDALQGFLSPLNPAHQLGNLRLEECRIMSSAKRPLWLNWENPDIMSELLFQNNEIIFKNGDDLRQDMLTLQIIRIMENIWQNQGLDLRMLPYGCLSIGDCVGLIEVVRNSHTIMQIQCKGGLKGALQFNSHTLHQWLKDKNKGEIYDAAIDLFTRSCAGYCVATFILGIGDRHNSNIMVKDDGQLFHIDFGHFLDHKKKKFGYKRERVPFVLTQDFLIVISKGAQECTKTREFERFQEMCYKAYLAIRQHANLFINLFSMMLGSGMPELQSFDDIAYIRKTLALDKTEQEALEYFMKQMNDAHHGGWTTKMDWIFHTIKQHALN
T2 sequence (P27986 whole entry partner): as the sequence (P27986 whole entry partner) above
Experiment: PI3-Kinase Promega ADP-Glo Max assay
Assay type: biochemical
Conditions: 20 nM kinase, 3 mM ATP, 500 uM diC8-PtdInsP
Description: as §1, §2, §3

Compound	pIC50
C[C@H](NC(=O)c1nc(-c2cccc(S(=O)(=O)NC3CC3)c2)cnc1N)c1cc2cccc(Cl)c2c(=O)n1-c1ccccc1 [Compound 96]	< 5.00
C[C@H](NC(=O)c1c(N)nn2cccnc12)c1cc2cccc(Cl)c2c(=O)n1-c1cccc(F)c1 [Compound 78]	5.00 to 6.00
C[C@H](NC(=O)c1nc(-c2ccccc2)cnc1N)c1cc2cccc(Cl)c2c(=O)n1-c1ccccc1 [Compound 42]	< 5.00
C[C@H](NC(=O)c1c(N)nn2cccnc12)c1cc2cccc(C#CCCNC(=O)[C@H]3CCC(=O)O3)c2c(=O)n1-c1ccccc1 [Compound 161]	5.00 to 6.00

Results, then the molecule that gave them:

pIC50	Compound
6.00 to 7.00	C#Cc1cccc2cc([C@H](C)NC(=O)c3c(N)nn4cccnc34)n(-c3ccccc3)c(=O)c12 [Compound 276]
< 5.00	C[C@H](NC(=O)c1c(N)nn2cccnc12)c1cc2cccc(-c3cnn(C)c3)c2c(=O)n1-c1ccccc1 [Compound 222]
6.00 to 7.00	C[C@H](NC(=O)c1c(N)nn2cccnc12)c1cc2cccc(Cl)c2c(=O)n1CCN(C)S(C)(=O)=O [Compound 273]
< 5.00	C[C@H](NC(=O)c1c(N)nn2cccnc12)c1cc2ccsc2c(=O)n1-c1ccccc1 [Compound 198]

Molecular target: T3, PI3K δ (Homo sapiens, UniProt O00329)
T3 construct: purchased Millipore
Experiment: PI3-Kinase Promega ADP-Glo Max assay
Assay type: biochemical
Conditions: 20 nM kinase, 3 mM ATP, 500 uM diC8-PtdInsP
Description: as §1, §2, §3

Compound	pIC50
C[C@H](NC(=O)c1nc(-c2cccc(S(=O)(=O)NC3CC3)c2)cnc1N)c1cc2cccc(Cl)c2c(=O)n1-c1ccccc1 [Compound 96]	5.00 to 6.00
C[C@H](NC(=O)c1c(N)nn2cccnc12)c1cc2cccc(Cl)c2c(=O)n1-c1cccc(F)c1 [Compound 78]	6.00 to 7.00
C[C@H](NC(=O)c1nc(-c2ccccc2)cnc1N)c1cc2cccc(Cl)c2c(=O)n1-c1ccccc1 [Compound 42]	< 5.00
C[C@H](NC(=O)c1c(N)nn2cccnc12)c1cc2cccc(C#CCCNC(=O)[C@H]3CCC(=O)O3)c2c(=O)n1-c1ccccc1 [Compound 161]	5.00 to 6.00

Second part, the molecule after the results:

pIC50	Compound
6.00 to 7.00	C#Cc1cccc2cc([C@H](C)NC(=O)c3c(N)nn4cccnc34)n(-c3ccccc3)c(=O)c12 [Compound 276]
5.00 to 6.00	C[C@H](NC(=O)c1c(N)nn2cccnc12)c1cc2cccc(-c3cnn(C)c3)c2c(=O)n1-c1ccccc1 [Compound 222]
6.00 to 7.00	C[C@H](NC(=O)c1c(N)nn2cccnc12)c1cc2cccc(Cl)c2c(=O)n1CCN(C)S(C)(=O)=O [Compound 273]
5.00 to 6.00	C[C@H](NC(=O)c1c(N)nn2cccnc12)c1cc2ccsc2c(=O)n1-c1ccccc1 [Compound 198]

Molecular target: T4, PI3K γ (Homo sapiens, UniProt P48736)
T4 construct: purchased Millipore
Experiment: PI3-Kinase Promega ADP-Glo Max assay
Assay type: biochemical
Conditions: 40 nM kinase, 3 mM ATP, 500 uM diC8-PtdInsP
Description: Promega ADP-Glo Max assay kit (Cat. No. V7002) was utilized to determine IC50 values for α, β, δ and γ isoforms of human Class I PI3 kinases (Millipore). […] Reactions were incubated at room temperature for 2 hours followed by addition of 25 uL of stop solution. After a 40-minute incubation at room temperature, 50 uL of Promega detection mix was added followed by incubation for 1 hour at room temperature. Plates were then read on Envision plate reader in luminescence mode. Data was converted to % inhibition using the following equation below:
[formula] where S is the sample luminescence, Pos is a positive control without added PI3K, Neg is the negative control without added compound. Data was then plotted as % inhibition vs compound concentration.
as §3

Compound	pIC50
C[C@H](NC(=O)c1nc(-c2cccc(S(=O)(=O)NC3CC3)c2)cnc1N)c1cc2cccc(Cl)c2c(=O)n1-c1ccccc1 [Compound 96]	5.00 to 6.00
C[C@H](NC(=O)c1c(N)nn2cccnc12)c1cc2cccc(Cl)c2c(=O)n1-c1cccc(F)c1 [Compound 78]	> 7.00
C[C@H](NC(=O)c1nc(-c2ccccc2)cnc1N)c1cc2cccc(Cl)c2c(=O)n1-c1ccccc1 [Compound 42]	5.00 to 6.00
C[C@H](NC(=O)c1c(N)nn2cccnc12)c1cc2cccc(C#CCCNC(=O)[C@H]3CCC(=O)O3)c2c(=O)n1-c1ccccc1 [Compound 161]	6.00 to 7.00

Results, then the molecule that gave them:

pIC50	Compound
> 7.00	C#Cc1cccc2cc([C@H](C)NC(=O)c3c(N)nn4cccnc34)n(-c3ccccc3)c(=O)c12 [Compound 276]
6.00 to 7.00	C[C@H](NC(=O)c1c(N)nn2cccnc12)c1cc2cccc(-c3cnn(C)c3)c2c(=O)n1-c1ccccc1 [Compound 222]
> 7.00	C[C@H](NC(=O)c1c(N)nn2cccnc12)c1cc2cccc(Cl)c2c(=O)n1CCN(C)S(C)(=O)=O [Compound 273]
5.00 to 6.00	C[C@H](NC(=O)c1c(N)nn2cccnc12)c1cc2ccsc2c(=O)n1-c1ccccc1 [Compound 198]

Molecular target: T5, Raw264.7 p110 γ (Mus musculus, UniProt Q9JHG7)
T5 construct: reduction of phospho-AKT in stimulated RAW 264.7 cells; endogenous in cells; host or cells: RAW264.7 macrophages
T5 sequence (Q9JHG7 whole entry): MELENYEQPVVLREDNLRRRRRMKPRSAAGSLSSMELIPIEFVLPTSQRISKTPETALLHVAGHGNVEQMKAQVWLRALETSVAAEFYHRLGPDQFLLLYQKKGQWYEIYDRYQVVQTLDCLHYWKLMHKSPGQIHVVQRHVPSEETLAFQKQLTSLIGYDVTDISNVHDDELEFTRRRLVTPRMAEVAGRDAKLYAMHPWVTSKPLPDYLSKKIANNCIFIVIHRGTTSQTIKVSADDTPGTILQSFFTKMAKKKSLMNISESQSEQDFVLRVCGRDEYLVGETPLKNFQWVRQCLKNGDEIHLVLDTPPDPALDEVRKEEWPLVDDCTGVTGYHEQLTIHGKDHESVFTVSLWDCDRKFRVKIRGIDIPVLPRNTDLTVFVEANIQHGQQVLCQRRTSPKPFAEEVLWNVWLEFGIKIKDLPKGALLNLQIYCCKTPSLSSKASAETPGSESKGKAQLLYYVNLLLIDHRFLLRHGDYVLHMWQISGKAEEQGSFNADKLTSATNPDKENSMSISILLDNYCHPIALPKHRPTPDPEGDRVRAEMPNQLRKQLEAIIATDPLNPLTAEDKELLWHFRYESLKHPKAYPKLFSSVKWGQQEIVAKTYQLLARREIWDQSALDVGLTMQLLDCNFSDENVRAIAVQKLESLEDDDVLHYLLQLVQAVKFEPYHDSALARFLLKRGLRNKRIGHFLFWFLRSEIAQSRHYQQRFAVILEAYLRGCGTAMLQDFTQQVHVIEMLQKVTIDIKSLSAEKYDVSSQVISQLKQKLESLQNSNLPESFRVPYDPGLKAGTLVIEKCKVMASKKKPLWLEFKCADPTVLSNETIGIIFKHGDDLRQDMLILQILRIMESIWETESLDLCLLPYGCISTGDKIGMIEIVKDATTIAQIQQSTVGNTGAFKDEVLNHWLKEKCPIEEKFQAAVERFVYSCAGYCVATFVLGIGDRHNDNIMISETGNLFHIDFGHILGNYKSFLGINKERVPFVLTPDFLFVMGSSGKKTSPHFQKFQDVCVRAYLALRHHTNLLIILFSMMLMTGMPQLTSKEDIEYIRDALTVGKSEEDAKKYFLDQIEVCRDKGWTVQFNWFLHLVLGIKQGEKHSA
Experiment: Raw264.7 p110 γ cellular assay (phospho-AKT)
Assay type: cell-based
Conditions: serum-starved RAW264.7 cells stimulated with C5a
Description: (b) PI3K-γ Selective Assay
Briefly, serum-starved PAW264.7 cells are stimulated with a known GPCR agonist C5a. […] Cells can be treated with test compounds prior to, simultaneously with, or subsequent to the stimulation by C5a. RAW 264.7 cells respond to the complement component fragment C5a through activation of the C5a receptor, and the C5a receptor activates macrophages and induces cell migration.

Compound	pIC50
C[C@H](NC(=O)c1nc(-c2cccc(S(=O)(=O)NC3CC3)c2)cnc1N)c1cc2cccc(Cl)c2c(=O)n1-c1ccccc1 [Compound 96]	> 7.00
C[C@H](NC(=O)c1c(N)nn2cccnc12)c1cc2cccc(Cl)c2c(=O)n1-c1cccc(F)c1 [Compound 78]	> 7.00
C[C@H](NC(=O)c1nc(-c2ccccc2)cnc1N)c1cc2cccc(Cl)c2c(=O)n1-c1ccccc1 [Compound 42]	5.00 to 6.00
C[C@H](NC(=O)c1c(N)nn2cccnc12)c1cc2cccc(C#CCCNC(=O)[C@H]3CCC(=O)O3)c2c(=O)n1-c1ccccc1 [Compound 161]	> 7.00

Other lines, results leading:

pIC50	Compound
> 7.00	C#Cc1cccc2cc([C@H](C)NC(=O)c3c(N)nn4cccnc34)n(-c3ccccc3)c(=O)c12 [Compound 276]
> 7.00	C[C@H](NC(=O)c1c(N)nn2cccnc12)c1cc2cccc(-c3cnn(C)c3)c2c(=O)n1-c1ccccc1 [Compound 222]
> 7.00	C[C@H](NC(=O)c1c(N)nn2cccnc12)c1cc2cccc(Cl)c2c(=O)n1CCN(C)S(C)(=O)=O [Compound 273]
6.00 to 7.00	C[C@H](NC(=O)c1c(N)nn2cccnc12)c1cc2ccsc2c(=O)n1-c1ccccc1 [Compound 198]
